Measured values as given in US4382030A, “2-Acylaminomethyl-1,4-benzodiazepine derivatives and their salts, pharmaceutical compositions thereof and process for their preparation” (Kali-Chemie Pharma GmbH, priority 1979, dated 1983).

Assays:
Type in all cases: in vivo
male mice = experiment: Determination of the Minimal Toxic Dose (oral, mice); settings: mouse, p.o.; observed 3 h, symptoms and deaths over 24 h
Procedure: 1. Determination of the Minimal Toxic Dose.
Maximum doses of 300 mg/kg of the test compound are administered orally to three male mice having a weight of 20-25 g and toxicity symptoms are carefully observed for a period of three hours. Furthermore, over a period of 24 hours from the administration all symptoms and deaths are registered. Side-symptoms are also observed and registered. Depending on their water solubility, the test compounds are administered either in form of aqueous solutions or in form of suspensions without the use of solvents. In order to maintain a stable suspension of the test compound, one drop of Tween-80 can be added and the mixture can be mechanically homogenized. In the case of compounds where deaths or toxic symptoms have been observed, additional mice are treated with decreasing doses until a dose is reached at which no toxic symptoms occur. The lowest dose which causes toxic symptoms is considered the minimal toxic dose.

[1] = tested on: mice (tail flick, heat beam pain reaction); experiment: Tail flick Test in Mice; settings: sc, 0.5 h; mouse, s.c.; 30 minutes after administration; >75% increase of reaction time in 50% of animals
Procedure: (§1) This analgesic activity has been evaluated in two pharmacological standard methods, the tail flick test in mice and the arthritis pain test in rats.
3. Tail flick Test in Mice.
This test is carried out according to the method described by D'Amour and Smith (1941), yet fed male and female mice having a body weight of 16 to 25 g are used instead of rats. Thirty minutes prior to treatment with the test compound, each mouse is placed separately in a cylindrical container in such a manner that it cannot turn itself or move forward. Its tail is positioned in a narrow groove projecting out of the container. A certain point of the tail of each animal (about 35 mm beyond the root of the tail) is subjected to the heat beam of a lamp of known strength and temperature which is positioned directly under the tail. The number of seconds which pass before the mouse moves its tail out of the light beam is determined twice, once 30 minutes and once 15 minutes prior to subcutaneous administration of the test compound (10 mg/kg). Mice which show a reaction time differing more than 25% are eliminated from the test. The reaction time is again determined 15 minutes and 30 minutes after the treatment and an increase of the reaction period of more than 75% of the average values prior to treatment in the same animal is considered as showing an analgesic effect. The ED50 (95% reliability) of each test compound 30 minutes after administration is evaluated according to the method of Litchfield and Wilcoxon (1949). The dose which increases the reaction time as compared to the reaction time prior to treatment for more than 75% in 50% of the animals is considered as ED50.

[2] = tested on: rats (secondary arthritis pain, mycobacterium smegmae); experiment: Arthritis Pain Test in Rats; settings: po, rat, p.o., 3 hours after administration, protection in 50% of treated animals
Procedure: as §1
2. Arthritis Pain Test in Rats.
Male rats having a weight of from 160 to 180 g are anesthetized by small i.p. injection of 20 mg/kg of sodium pentobarbital and 0.1 ml of a suspension of mycobacterium smegmae (SI 043) in liquid paraffin (0.6 mg mycobacterium/0.1 ml of oil) are injected intracutaneously into the left rear paw. Fourteen days later when a marked secondary arthritis has developed in particular in the right rear paw, the effect of the test compound is evaluated. A control-reading is taken 30 minutes prior to administration of the test compound by bending the foot joint of the right rear paw three times and counting the number of squeakings. […] Three hours after oral administration of the test compound the bending of the joint is repeated. Animals which squeak only once or not at all are considered to be protected against pain. Between about 9 and 20 rats are used per dose and the ED50 (95% reliability) is determined according to the method of Litchfield and Wilcoxon (1949). The dose which provides protection in 50% of the treated animals is taken as ED50.

SMILES | MDL (minimal toxic dose) (male mice) [mg/kg] | ED50 [1] [mg/kg] | ED50 [2] [mg/kg]
CN1c2ccccc2C(c2ccccc2)=NCC1CNC(=O)c1cccs1 (stereo not drawn) [Compound 1, 1-methyl-2-[(thiophene-2-carbonyl)-aminomethyl]-5-phenyl-1H-2,3-dihydro-1,4-benzodiazepine] | > 300 | 2.8 | 13
CN1c2ccccc2C(c2ccccc2)=NCC1CNC(=O)c1ccco1 (stereo not drawn) [Compound 2, 1-methyl-2-[(furane-2-carbonyl)-aminomethyl]-5-phenyl-1H-2,3-dihydro-1,4-benzodiazepine] | > 300 | 2.8 | 32
COc1ccc2c(c1)N(C)C(CNC(=O)c1cccs1)CN=C2c1ccccc1 (stereo not drawn) [Compound 3, 8-methoxy-1-methyl-2-[(thiophene-2-carbonyl)-aminomethyl]-5-phenyl-1H-2,3-dihydro-1,4-benzodiazepine] | > 200 | 5.3 | 20
COc1ccc2c(c1)N(C)C(CNC(=O)c1ccco1)CN=C2c1ccccc1 (stereo not drawn) [Compound 4, 8-methoxy-1-methyl-2-[(furane-2-carbonyl)-aminomethyl]-5-phenyl-1H-2,3-dihydro-1,4-benzodiazepine] | > 200 | 7 | 21
COc1ccc2c(c1)N(C)C(CNC(=O)c1ccsc1)CN=C2c1ccccc1 (stereo not drawn) [Compound 5, 8-methoxy-1-methyl-2-[(thiophene-3-carbonyl)-aminomethyl]-5-phenyl-1H-2,3-dihydro-1,4-benzodiazepine] | > 200 | 2.4 | 15
COc1ccc2c(c1)N(C)C(CNC(=O)c1ccoc1)CN=C2c1ccccc1 (stereo not drawn) [Compound 6, 8-methoxy-1-methyl-2-[(furane-3-carbonyl)-aminomethyl]-5-phenyl-1H-2,3-dihydro-1,4-benzodiazepine] | > 50 | 2.8 | 9
CN1c2ccccc2C(c2ccccc2)=NCC1CNC(=O)c1ccsc1 (stereo not drawn) [Compound 7, 1-methyl-2-[(thiophene-3-carbonyl)-aminomethyl]-5-phenyl-1H-2,3-dihydro-1,4-benzodiazepine] | > 200 | 0.22 | 19
Cc1cc2c(cc1C)N(C)C(CNC(=O)c1ccoc1)CN=C2c1ccccc1 (stereo not drawn) [Compound 8, 1,7,8-trimethyl-2-[(furane-3-carbonyl)-aminomethyl]-5-phenyl-1H-2,3-dihydro-1,4-benzodiazepine] | > 200 | 8 | 14
COc1ccc2c(c1)N(C)C(CNC(=O)c1ccc(C)s1)CN=C2c1ccccc1 (stereo not drawn) [Compound 9, 8-methoxy-1-methyl-2-[(5-methylthiophene-2-carbonyl)-aminomethyl]-5-phenyl-1H-2,3-dihydro-1,4-benzodiazepine] | > 200 | 5.6 | 14
Cc1ccc2c(c1)C(c1ccccc1)=NCC(CNC(=O)c1ccsc1)N2C (stereo not drawn) [Compound 10, 1,7-dimethyl-2-[(thiophene-3-carbonyl)-aminomethyl]-5-phenyl-1H-2,3-dihydro-1,4-benzodiazepine] | > 300 | 3.2 | 32
Cc1ccc2c(c1)C(c1ccccc1)=NCC(CNC(=O)c1ccoc1)N2C (stereo not drawn) [Compound 11, 1,7-dimethyl-2-[(furane-3-carbonyl)-aminomethyl]-5-phenyl-1H-2,3-dihydro-1,4-benzodiazepine] | > 300 | 1.2 | 30
Cc1ccc(C(=O)NCC2CN=C(c3ccccc3)c3ccccc3N2C)s1 (stereo not drawn) [Compound 12, 1-methyl-2-[(5-methylthiophene-2-carbonyl)-aminomethyl]-5-phenyl-1H-2,3-dihydro-1,4-benzodiazepine] | > 300 | 2.8 | 10
CCOc1ccc2c(c1)N(C)C(CNC(=O)c1ccoc1)CN=C2c1ccccc1 (stereo not drawn) [Compound 13, 8-ethoxy-1-methyl-2-[(furane-3-carbonyl)-aminomethyl]-5-phenyl-1H-2,3-dihydro-1,4-benzodiazepine] | > 200 | 6 | 15
COc1cccc(C2=NCC(CNC(=O)c3ccco3)N(C)c3ccccc32)c1 (stereo not drawn) [Compound 14, 1-methyl-2-[(furane-2-carbonyl)-aminomethyl]-5-(3-methoxyphenyl)-1H-2,3-dihydro-1,4-benzodiazepine] | > 300 | 1.6 | 32
COc1ccc2c(c1)C(c1ccccc1)=NCC(CNC(=O)c1ccoc1)N2C (stereo not drawn) [Compound 15, 7-methoxy-1-methyl-2-[(furane-3-carbonyl)-aminomethyl]-5-phenyl-1H-2,3-dihydro-1,4-benzodiazepine] | > 300 | 8.5 | 32
COc1cccc(C2=NCC(CNC(=O)c3ccsc3)N(C)c3ccccc32)c1 (stereo not drawn) [Compound 16, 1-methyl-2-[(thiophene-3-carbonyl)-aminomethyl]-5-(3-methoxyphenyl)-1H-2,3-dihydro-1,4-benzodiazepine] | > 300 | 0.5 | 32
CCN1c2ccccc2C(c2ccccc2)=NCC1CNC(=O)c1ccoc1 (stereo not drawn) [Compound 17, 1-ethyl-2-[(furane-3-carbonyl)-aminomethyl]-5-phenyl-1H-2,3-dihydro-1,4-benzodiazepine] | > 200 | 2.6 | 22
CN1c2ccccc2C(c2ccccc2F)=NCC1CNC(=O)c1ccco1 (stereo not drawn) [Compound 18, 1-methyl-2-[(furane-2-carbonyl)-aminomethyl]-5-(2-fluorophenyl)-1H-2,3-dihydro-1,4-benzodiazepine] | > 300 | 4.1 | 18
CN1c2ccccc2C(c2ccccc2F)=NCC1CNC(=O)c1ccoc1 (stereo not drawn) [Compound 19, 1-methyl-2-[(furane-3-carbonyl)-aminomethyl]-5-(2-fluorophenyl)-1H-2,3-dihydro-1,4-benzodiazepine] | > 300 | 0.56 | 13
CN1c2ccccc2C(c2ccccc2F)=NCC1CNC(=O)c1ccsc1 (stereo not drawn) [Compound 20, 1-methyl-2-[(thiophene-3-carbonyl)-aminomethyl]-5-(2-fluorophenyl)-1H-2,3-dihydro-1,4-benzodiazepine] | > 300 | 1.1 | 18
CN1c2ccccc2C(c2ccccc2F)=NCC1CNC(=O)c1cccs1 (stereo not drawn) [Compound 21, 1-methyl-2-[(thiophene-2-carbonyl)-aminomethyl]-5-(2-fluorophenyl)-1H-2,3-dihydro-1,4-benzodiazepine] | > 300 | 6.2 | 13
COc1ccc2c(c1)N(C)C(CNC(=O)c1cccs1)CN=C2c1ccc(F)cc1 (stereo not drawn) [Compound 47] |  | 3.2 | < 18
COc1ccc2c(c1)N(C)C(CNC(=O)c1ccc(Br)s1)CN=C2c1cccc(F)c1 (stereo not drawn) [Compound 48, 8-methoxy-1-methyl-2-[(5-bromothiophene-2-carbonyl)-aminomethyl]-5-(3-fluorophenyl)-1H-2,3-dihydro-1,4-benzodiazepine] |  | > 5.6 | < 18
COc1ccc2c(c1)N(C)C(CNC(=O)c1ccc(Br)s1)CN=C2c1ccc(F)cc1 (stereo not drawn) [Compound 49, 8-methoxy-1-methyl-2-[(5-bromothiophene-2-carbonyl)-aminomethyl]-5-(4-fluorophenyl)-1H-2,3-dihydro-1,4-benzodiazepine] |  | > 5.6 | < 18
